Earlier results as cited in patent publication US6464981B2, “Therapeutic agent for a cancer and method of screening the same, and health-care auxiliary food” (Orient Cancer Therapy Co., LTD, priority 2000, dated 2002).

Test system: cancer-carrying mice

SMILES: CCCCCCCCCCCCCCCCCCCCCCCCCC(=O)N[C@@H](CO[C@H]1O[C@H](CO)[C@H](O)[C@H](O)[C@H]1O)[C@H](O)[C@H](O)CCCCCCCCCCCCCC [α-galactosylceramide]
- activation of NKT cells: NKT cells are activated
- elimination of cancer: elimination of cancer is not observed
- metastasis of the cancer: metastasis of the cancer is suppressed
